“And” between values parts separate entries of the source, which are not always exact repeats. Equal values may be shown once.
Key:
[1] = splat cooling ice recrystallization inhibition (IRI) assay; details: for decrease in grain size: mean grain size vs PBS alone, 30 min at −6.4° C., FIG. 28
Protocol: In this assay, the area of ice crystals are measured after a 30 minute annealing time at −6.4° C. and compared to a positive control for ice recrystallization resulting in a quantitative measurement of the mean ice grain size. For a positive control, a phosphate buffered saline (PBS) solution was utilized. All samples were normalized to the PBS positive control. The ice recrystallization inhibition activity of the carbohydrate-based non-ionic surfactants n-octyl-β-D-glucopyranoside (compound 3) and n-octyl-β-D-galactopyranoside (compound 4) is shown in FIG. 1.
In this assay, the area of ice crystals are measured after a 30 minute annealing time at −6.4° C. and compared to a positive control for ice recrystallization resulting in a quantitative measurement of the mean ice grain size. For a positive control, a PBS solution was utilized. All samples were normalized to the PBS positive control.
N-aryl-D-gluconamides (3a), (2a), (4a), and (1b) are a class of low molecular weight carbohydrate-based compounds. The ice recrystallization inhibition activity of (3a), (2a), (4a), and (1b) was assessed using a “splat cooling” assay. In this assay, the area of ice crystals are measured after a 30 minutes annealing time at −6.4° C. and compared to a positive control for ice recrystallization resulting in a quantitative measurement of the mean ice grain size. For a positive control, PBS was utilized. All samples were normalized to the PBS positive control.

[2] = system: CD34+ cells (hematopoietic stem cells); experiment: colony forming unit (CFU) assay after cryopreservation of umbilical cord blood; assay type: cell-based, human; details: for BFU-E / CFU-G / CFU-GEMM / CFU-GM / CFU-M / Total Number of Colonies: 10% DMSO, post-thaw, 14 days in Methocult; for combined results of the CFU assays vs control: UCB units 26, 27, 28 combined, FIG. 41
Protocol: Aliquots of LC (50,000 CD34^+ cells) are added to 2.0 mL cryovials. For each experiment, four cryovials are prepared (two for post-thaw viability analysis using flow cytometry and two for functionality analysis using the colony forming unit assay). Cryovials are kept on ice until placement in −80° C. freezer. Cryovials are centrifuged at 400 g and 10° C. for 5 minutes to pellet cells. After centrifugation, the time taken until placement in −80° C. freezer should not exceed 10 minutes. Supernatant is removed by aspiration or by decanting, but preferably by aspiration. Plasma (volume depends on desired cryosolution concentration) is added and cells are suspended by pipetting. Pre-made cryosolutions (see Cryosolutions) are added (volume depends on desired cryosolution concentration) and mixed by pipetting. Cryovials are placed in a Mr. Frosty® rate controlled freezing container which is then placed in a −80° C. freezer for 24 hours. By placing the cryovials in the freezing container, their contents undergo a cooling rate of about −1° C. per minute. After 24 hours, the cryovials are transferred to a liquid nitrogen dewar for storage until thawed for analysis.
Cryosolutions are prepared in distilled autoclaved water supplemented with 0.9% saline and 5% dextran for cryopreservation experiments and diluted with different volumes of plasma in cryovials depending on desired concentration of ice recrystallization inhibitor. N-(4-chlorophenyl)-D-gluconamide (4a) and N-(2-fluorophenyl)-D-gluconamide (2a) are prepared at 25 mM and N-(4-methoxyphenyl)-D-gluconamide (3a) and N-(2,6-difluorobenzyl)-D-gluconamide (1b) are prepared at 55 mM. 100, 50, 33 or 20 μL of 25 mM N-(4-chlorophenyl)-D-gluconamide (4a) or N-(2-fluorophenyl)-D-gluconamide (2a) are added to cryovials containing 50,000 CD34^+ cells suspended in 0, 50, 67, or 80 μL of plasma, respectively, for a final IRI concentration of 25, 12.5, 8 or 5 mM, respectively. 100, 50, 33 or 20 μL of 55 mM N-(4-methoxyphenyl)-D-gluconamide (3a) or N-(2,6-difluorobenzyl)-D-gluconamide (1b) are added to cryovials containing 50,000 CD34^+ cells suspended in 0, 50, 67, or 80 μL of plasma, respectively, for a final IRI concentration of […], 18 or 11 mM, respectively.
Cryovials are thawed in a 37° C. water bath and diluted with 900 μL of IMDM (10% FBS, 1% penicillin/streptomycin). Cryovials are placed on ice until washed. Samples are mixed by pipetting and 80 μL is transferred to a 15 mL Falcon tube. 5 mL of Iscove's Modified Dulbecco's Medium (IMDM) supplemented with 10% fetal bovine serum (FBS) is added and this mixture is centrifuged at 1100 rpm for six minutes to yield a cell pellet and a supernatant. The supernatant is removed by aspiration and the cell pellet is resuspended in 1 mL IMDM (2% FBS) to form a suspension. The suspension is mixed by pipetting. 150 μL of this cell suspension is added to 3 mL Methocult™ media and plating is performed in accordance with manufacturer's instruction. The suspension with Methocult™ media is mixed adequately by vortexing for 20 seconds. The contents are allowed to settle and bubbles are allowed to subside before plating (approximately 5-10 minutes). Using a 3 mL syringe and 16 gauge blunt needles, 2.5 mL of the cell suspension in Methocult™ is taken from the bottom. 1 mL of this 2.5 mL is added to two 5 mL cell culture dishes. The dishes are swirled to ensure cells in Methocult™ medium coat the entire bottom of the dish. A third 5 mL dish is prepared to contain distilled autoclaved water without a lid. These three 5 mL dishes are placed in a 100 mL plate; two 5 mL dishes contain 1 mL of cell suspension in Methocult™ medium with the lid on and one containing distilled autoclaved water with the lid off. The lid is placed on the 100 mL plate and stored in a 37° C. incubator (5% CO2) for two weeks.

For `O=C(NCc1c(F)cccc1F)[C@H](O)[C@@H](O)[C@H](O)[C@H](O)CO` [(1b), N-(2,6-difluorobenzyl)-D-gluconamide], the “ice recrystallization inhibition activity” value ([1]; concentration not given) was “higher IRI activity than compound (2b)”, the “decrease in grain size” value [1] was “about 85%” and the BFU-E ([2]; 11 mM IRI) was 25.3. It also gave a CFU-G ([2]; 11 mM IRI) of 4.3, a CFU-GEMM ([2]; 11 mM IRI) of 2.4 and a CFU-GM ([2]; 11 mM IRI) of 9.8. For the same compound, the CFU-M ([2]; 11 mM IRI) was 1.5, the “Total Number of Colonies” value ([2]; 11 mM IRI) was 41.9 and the “Tot. No. Colonies” value ([2]; 11 mM IRI, UCB Unit 27) was 31 and 30. It also gave a BFU-E ([2]; 18 mM IRI) of 24.0, a CFU-G ([2]; 18 mM IRI) of 9.5 and a CFU-GEMM ([2]; 18 mM IRI) of 7.5. The CFU-GM ([2]; 18 mM IRI) was 11.0, the CFU-M ([2]; 18 mM IRI) was 4.5 and the “Total Number of Colonies” value ([2]; 18 mM IRI) was 56.5. The “fold increase in functionality relative to the control” value ([2]; 18 mM vs DMSO only) was 1.8 fold, the CFU-G ([2]; 27.5 mM IRI) was 3.0 and the CFU-GEMM ([2]; 27.5 mM IRI) was 3.5. For the same compound, the CFU-GM ([2]; 27.5 mM IRI) was 11.0, the “Total Number of Colonies” value ([2]; 27.5 mM IRI) was 48.0 and the BFU-E ([2]; 55 mM IRI) was 29.5. For the same compound, the CFU-G ([2]; 55 mM IRI) was 8.5, the CFU-GEMM ([2]; 55 mM IRI) was 1.5 and the CFU-GM ([2]; 55 mM IRI) was 10.5. For the same compound, the CFU-M ([2]; 55 mM IRI) was 0.5, the “Total Number of Colonies” value ([2]; 55 mM IRI) was 50.5 and the “combined results of the CFU assays vs control” value (“combined results … vs control” below) [2] was “performed particularly well”.

For `O=C(Nc1ccccc1F)[C@H](O)[C@@H](O)[C@H](O)[C@H](O)CO` [(2a), N-(2-fluorophenyl)-D-gluconamide], the “decrease in grain size” value [1] was ~95%, the “Tot. No. Colonies” value ([2]; 5 mM IRI, UCB Unit 26) was 48 and 66 and 42 and the “Tot. No. Colonies” value ([2]; 5 mM IRI, UCB Unit 27) was 38 and 34. For the same compound, the “combined results … vs control” value [2] was “performed particularly well”.

With `COc1ccc(NC(=O)[C@H](O)[C@@H](O)[C@H](O)[C@H](O)CO)cc1` [(3a), N-(4-methoxyphenyl)-D-gluconamide] the “decrease in grain size” value [1] was ~95%, the BFU-E ([2]; 11 mM IRI) was 20.5 and the CFU-G ([2]; 11 mM IRI) was 5.5. For the same compound, the CFU-GEMM ([2]; 11 mM IRI) was 5.9, the CFU-GM ([2]; 11 mM IRI) was 7.4 and the CFU-M ([2]; 11 mM IRI) was 0.9. For the same compound, the “Total Number of Colonies” value ([2]; 11 mM IRI) was 40.4, the “Tot. No. Colonies” value ([2]; 11 mM IRI, UCB Unit 27) was 33 and 37 and the BFU-E ([2]; 18 mM IRI) was 18.0. It also gave a CFU-G ([2]; 18 mM IRI) of 8.8, a CFU-GEMM ([2]; 18 mM IRI) of 2.8 and a CFU-GM ([2]; 18 mM IRI) of 11.3. For the same compound, the CFU-M ([2]; 18 mM IRI) was 0.3, the “Total Number of Colonies” value ([2]; 18 mM IRI) was 36.0 and the CFU-G ([2]; 27.5 mM IRI) was 6.5. The CFU-GEMM ([2]; 27.5 mM IRI) was 15.5, the CFU-GM ([2]; 27.5 mM IRI) was 14.0 and the “Total Number of Colonies” value ([2]; 27.5 mM IRI) was 74.5. For the same compound, the “fold increase in functionality relative to the control” value ([2]; 27.5 mM vs DMSO only) was 2.4 fold, the BFU-E ([2]; 55 mM IRI) was 24.5 and the CFU-G ([2]; 55 mM IRI) was 9.5. The CFU-GEMM ([2]; 55 mM IRI) was 6.5, the CFU-GM ([2]; 55 mM IRI) was 15.0 and the CFU-M ([2]; 55 mM IRI) was 1.0. For the same compound, the “Total Number of Colonies” value ([2]; 55 mM IRI) was 56.5 and the “combined results … vs control” value [2] was “performed particularly well”.

In the case of `O=C(Nc1ccc(Cl)cc1)[C@H](O)[C@@H](O)[C@H](O)[C@H](O)CO` [(4a), N-(4-chlorophenyl)-D-gluconamide], the “decrease in grain size” value [1] is reported as ~60%, the BFU-E ([2]; 5 mM IRI) is reported as 22.2 and the CFU-G ([2]; 5 mM IRI) is reported as 4.2. It also gave a CFU-GEMM ([2]; 5 mM IRI) of 6.8, a CFU-GM ([2]; 5 mM IRI) of 11.5 and a CFU-M ([2]; 5 mM IRI) of 1.3. For the same compound, the “Total Number of Colonies” value ([2]; 5 mM IRI) was 46.0, the “Tot. No. Colonies” value ([2]; 5 mM IRI, UCB Unit 27) was 47 and 38 and the BFU-E ([2]; 8 mM IRI) was 17.0. It also gave a CFU-G ([2]; 8 mM IRI) of 8.0, a CFU-GEMM ([2]; 8 mM IRI) of 4.0 and a CFU-GM ([2]; 8 mM IRI) of 10.5. The CFU-M ([2]; 8 mM IRI) was 0.5, the “Total Number of Colonies” value ([2]; 8 mM IRI) was 40.0 and the BFU-E ([2]; 12.5 mM IRI) was 44.0. For the same compound, the CFU-G ([2]; 12.5 mM IRI) was 1.5, the CFU-GEMM ([2]; 12.5 mM IRI) was 0.0 and the CFU-GM ([2]; 12.5 mM IRI) was 8.5. For the same compound, the CFU-M ([2]; 12.5 mM IRI) was 3.0, the “Total Number of Colonies” value ([2]; 12.5 mM IRI) was 61.0 and the BFU-E ([2]; 25 mM IRI) was 37.0. It also gave a CFU-G ([2]; 25 mM IRI) of 11.5, a CFU-GEMM ([2]; 25 mM IRI) of 2.0 and a CFU-GM ([2]; 25 mM IRI) of 10.5. The CFU-M ([2]; 25 mM IRI) was 2.0, the “Total Number of Colonies” value ([2]; 25 mM IRI) was 63.0 and the “fold increase in functionality relative to the control” value ([2]; 25 mM vs DMSO only) was 2.0 fold. For the same compound, the “combined results … vs control” value [2] was “performed particularly well”.
